# Results taken from publication PMC3602187, “From Design to Screening: A New Antimicrobial Peptide Discovery Pipeline” (PLoS ONE, 2013).
# Where a SMILES comes first, the peptide text is derived from it.
# System: Listeria innocua 33090
# Test: colony overlay assay of peptide-secreting E. coli clones (library screening and re-test)
# Type: cell-based
# Parameters: key: higher activity group (H); equal activity group (E); lower activity group (L)
# Settings: library screening; selected colonies pooled by zone size; peptides identified by 454 sequencing, full-length sequences with minimum 20 reads
# How it was run: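 Pln-423 mutant library expressed periplasmically in leaky E. coli JE5505 (pFLAG-CTS); colonies grown 24 h at 37°C, then overlaid with TSB soft agar containing 1 mM IPTG and L. innocua ATCC 33090 (OD600 = 0.03) and incubated overnight at 30°C. Activity scored by inhibition-zone size versus wild-type Pln-423; hits re-tested after 4 h regrowth.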
row,Compound,activity group by size of inhibition zone compared to wild-type Pln-423
1,CC(C)C[C@H](NC(=O)[C@H](Cc1c[nH]cn1)NC(=O)[C@H](CO)NC(=O)[C@@H](NC(=O)[C@H](CO)NC(=O)[C@H](CS)NC(=O)[C@H](CCC(=O)O)NC(=O)[C@H](Cc1ccccc1)NC(=O)[C@H](C)NC(=O)[C@H](CCC(N)=O)NC(=O)CNC(=O)[C@H](Cc1c[nH]c2ccccc12)NC(=O)[C@H](CC(N)=O)NC(=O)[C@@H](NC(=O)[C@H](CO)NC(=O)[C@H](CS)NC(=O)[C@H](CO)NC(=O)[C@H](Cc1c[nH]cn1)NC(=O)[C@H](CCCCN)NC(=O)CNC(=O)[C@H](CS)NC(=O)[C@@H](NC(=O)[C@@H](NC(=O)CNC(=O)[C@H](CC(N)=O)NC(=O)CNC(=O)[C@H](Cc1ccc(O)cc1)NC(=O)[C@H](Cc1ccc(O)cc1)NC(=O)[C@@H](N)CCCCN)C(C)C)[C@@H](C)O)C(C)C)C(C)C)C(=O)N[C@@H](C)C(=O)N[C@@H](CC(N)=O)C(=O)N[C@@H](Cc1ccccc1)C(=O)NCC(=O)N[C@@H](Cc1c[nH]cn1)C(=O)NCC(=O)N[C@@H](CCCCN)C(=O)N[C@@H](CS)C(=O)O [PLN-S23E] (H-KYYGNGVTCGKHSCSVNWGQAFECSVSHLANFGHGKC-OH; N-terminus and C-terminus assumed),H and L
2,KYYGNGVTCGKHSCSVNWGQAFYCSVSHLANFGHGKC* [GROUP L-UM-29],L
3,KYYGNGVTCGKHSCSVNWGQAGSCSVSRLANFGHGKC* [Pep-2_6539],H
4,KYYGNGVTCGKHSCSVNWGQAGSCVVSHLANFGHGKC* [Pep-2_4919],L
5,KYYGNGVTCGKHSCSVNWGQAIVCSVSHLANFGHGKC* [Pep-2_3622],L
6,KYYGNGVTCGKHSCSVNWGQALSCAVSHLANFGHGKC* [Pep-2_5026],L
7,KYYGNGVTCGKHSCSVNWGQALSCSVTHLANFGHGKC* [GROUP L-UM-8],L
8,KYYGNGVTCGKHSCSVNWGQAMSCSVSRLANFGHGKC* [Pep-2_6538],E
9,KYYGNGVTCGKHSCSVNWGQAVSCSVHHLANFGHGKC* [GROUP E-UM-6],E
10,KYYGNGVTCGKHSCSVNWGQAVSCSVSHLANFGHGKC* [Pep-1_28],E
11,KYYGNGVTCGKHSCSVNWGQAYSCSVSHLANFGHGKC* [GROUP L-UM-21],L
12,KYYGNGVTCGKHSCSVNWGQGFSCAVSHLANFGHGKC* [Pep-2_2447],L
13,KYYGNGVTCGKHSCSVNWGQGFSCSVNHLANFGHGKC* [Pep-2_2457],L
14,KYYGNGVTCGKHSCSVNWGQGFSCSVSHLANFGHGKC* [Pep-1_23],L
15,KYYGNGVTCGKHSCSVNWGQSFSCSFSHLANFGHGKC* [Pep-2_5559],L
16,KYYGNGVTCGKHSCSVNWGQSFSCSVSHLANFGHGKC* [GROUP E-UM-5],E
17,KYYGNGVTCGKHSCSVNWGQVFSCSVSHLANFGHGHC* [Pep-2_11716],L

row,Compound,activity group by size of inhibition zone compared to wild-type Pln-423
1,KYYGNGVTCGKHSCSVNWGQVFSCSVSHLANFGHGKC* [Pep-1_22],L
2,KYYGNGVTCGKHSCSVNWGQWFSCSVSHLANFGMGKC* [Pep-2_10746],L
3,KYYGNGVTCGKHSCSVNWGRAFSCSVAHLANFGHGKC* [Pep-2_6307],L
4,KYYGNGVTCGKHSCSVNWGRAFSCSVSRLANFGHGKC* [Pep-2_6523],L
5,KYYGNGVTCGKHSCSVNWGSAFSCSVSHLANFGEGSC* [GROUP L-UM-24],L
6,KYYGNGVTCGKHSCSVNWGTAFSCSISHLANFGHGKC* [Pep-2_1588],E
7,KYYGNGVTCGKHSCSVNWGTAFSCSVSYLANFGHGKC* [GROUP L-UM-14],L
8,KYYGNGVTCGKHSCSVNWGVAFSCSVSHLANFGHGWC* [Pep-2_1758],L
9,KYYGNGVTCGKHSCSVNWGVAFSCSVSHLANFGHGYC* [Pep-2_1755],L
10,KYYGNGVTCGKHSCSVNWGWAFSCSVSHLANFGHGKC* [Pep-1_18],L
11,KYYGNGVTCGKHSCSVNWNQAFYCSVSHLANFGHGKC* [Pep-2_921],L
12,KYYGNGVTCGKHSCSVNYGQAFACSVSHLANFGHGKC* [Pep-2_257],L
13,KYYGNGVTCGKHSCSVNYGQAFSCSVSHLANFGHGAC* [Pep-2_335],E
14,KYYGNGVTCGKHSCSVNYGQAFSCSVWHLANFGHGKC* [Pep-2_282],E
15,KYYGNGVTCGKHSCSVNYGQLFSCSVSHLANFGHGKC* [GROUP L-UM-22],L
16,KYYGNGVTCGNYSCSVNWGQAFSCSVVHLAEFGHGKC* [GROUP L-UM-10],L

# System: Listeria innocua 33090
# Test: MIC determination / agar spot assay of synthetic peptides
# Type: cell-based
# Settings: synthetic peptide; 5 µl of two-fold serial dilutions spotted on TSB soft agar (1.2%) with 5×10^5 cfu/ml; 1 h room temperature, then 18 h at 37°C; lowest concentration with visible inhibition zone; triplicate
# Experimental: Synthetic samples of wild-type Pln-423, two variants Pln-S23E and Pln-H28R/H34E from this study (Pln-4 and Pln-7 on Fig. 2), and another high-activity variant Pln-S27D/K36N (discovered during a pilot study, data not shown) were tested on agar plates at varying concentrations.
# MICs were determined as previously described, [35]. Synthetic peptides were obtained from Peptide 2.0, Inc. (Chantilly, VA) and dissolved in 0.1% acetic acid/water solution at the final concentration of 2.5 mg/ml. Listeria innocua 33090 was grown in TSB until the turbidity of the culture match that of McFarland standard 0.5 (∼OD600 = 0.11) and diluted to final concentration of 5×10^5 cfu/ml in 20 ml TSB soft agar (1.2%) per plate. Two-fold serial dilutions (starting at 128 µg/ml) for each peptide was carried out in ultra-pure deionized water and 5 µl aliquots of each dilution were spotted on TSB plates. After the plates were incubated for 1 h at room temperature, they were placed at 37°C for overnight incubation. This experiment was performed in triplicate and the MIC was calculated as the lowest peptide concentration that formed a visible growth inhibition zone.
row,Compound,MIC [µM]
1,CC(C)C[C@H](NC(=O)[C@H](Cc1c[nH]cn1)NC(=O)[C@H](CO)NC(=O)[C@@H](NC(=O)[C@H](CO)NC(=O)[C@H](CS)NC(=O)[C@H](CCC(=O)O)NC(=O)[C@H](Cc1ccccc1)NC(=O)[C@H](C)NC(=O)[C@H](CCC(N)=O)NC(=O)CNC(=O)[C@H](Cc1c[nH]c2ccccc12)NC(=O)[C@H](CC(N)=O)NC(=O)[C@@H](NC(=O)[C@H](CO)NC(=O)[C@H](CS)NC(=O)[C@H](CO)NC(=O)[C@H](Cc1c[nH]cn1)NC(=O)[C@H](CCCCN)NC(=O)CNC(=O)[C@H](CS)NC(=O)[C@@H](NC(=O)[C@@H](NC(=O)CNC(=O)[C@H](CC(N)=O)NC(=O)CNC(=O)[C@H](Cc1ccc(O)cc1)NC(=O)[C@H](Cc1ccc(O)cc1)NC(=O)[C@@H](N)CCCCN)C(C)C)[C@@H](C)O)C(C)C)C(C)C)C(=O)N[C@@H](C)C(=O)N[C@@H](CC(N)=O)C(=O)N[C@@H](Cc1ccccc1)C(=O)NCC(=O)N[C@@H](Cc1c[nH]cn1)C(=O)NCC(=O)N[C@@H](CCCCN)C(=O)N[C@@H](CS)C(=O)O [PLN-S23E] (H-KYYGNGVTCGKHSCSVNWGQAFECSVSHLANFGHGKC-OH; N-terminus and C-terminus assumed),1

# Same assay, conditions: synthetic peptides
Compound,MIC fold lower than wild-type Pln-423 [fold],MIC fold higher compared to Pln-WT [fold]
CC(C)C[C@H](NC(=O)[C@H](CCCNC(=N)N)NC(=O)[C@H](CO)NC(=O)[C@@H](NC(=O)[C@H](CO)NC(=O)[C@H](CS)NC(=O)[C@H](CO)NC(=O)[C@H](Cc1ccccc1)NC(=O)[C@H](C)NC(=O)[C@H](CCC(N)=O)NC(=O)CNC(=O)[C@H](Cc1c[nH]c2ccccc12)NC(=O)[C@H](CC(N)=O)NC(=O)[C@@H](NC(=O)[C@H](CO)NC(=O)[C@H](CS)NC(=O)[C@H](CO)NC(=O)[C@H](Cc1c[nH]cn1)NC(=O)[C@H](CCCCN)NC(=O)CNC(=O)[C@H](CS)NC(=O)[C@@H](NC(=O)[C@@H](NC(=O)CNC(=O)[C@H](CC(N)=O)NC(=O)CNC(=O)[C@H](Cc1ccc(O)cc1)NC(=O)[C@H](Cc1ccc(O)cc1)NC(=O)[C@@H](N)CCCCN)C(C)C)[C@@H](C)O)C(C)C)C(C)C)C(=O)N[C@@H](C)C(=O)N[C@@H](CC(N)=O)C(=O)N[C@@H](Cc1ccccc1)C(=O)NCC(=O)N[C@@H](CCC(=O)O)C(=O)NCC(=O)N[C@@H](CCCCN)C(=O)N[C@@H](CS)C(=O)O [PLN-H28R/H34E] (H-KYYGNGVTCGKHSCSVNWGQAFSCSVSRLANFGEGKC-OH; N-terminus and C-terminus assumed),2,
CC(C)C[C@H](NC(=O)[C@H](Cc1c[nH]cn1)NC(=O)[C@H](CO)NC(=O)[C@@H](NC(=O)[C@H](CO)NC(=O)[C@H](CS)NC(=O)[C@H](CCC(=O)O)NC(=O)[C@H](Cc1ccccc1)NC(=O)[C@H](C)NC(=O)[C@H](CCC(N)=O)NC(=O)CNC(=O)[C@H](Cc1c[nH]c2ccccc12)NC(=O)[C@H](CC(N)=O)NC(=O)[C@@H](NC(=O)[C@H](CO)NC(=O)[C@H](CS)NC(=O)[C@H](CO)NC(=O)[C@H](Cc1c[nH]cn1)NC(=O)[C@H](CCCCN)NC(=O)CNC(=O)[C@H](CS)NC(=O)[C@@H](NC(=O)[C@@H](NC(=O)CNC(=O)[C@H](CC(N)=O)NC(=O)CNC(=O)[C@H](Cc1ccc(O)cc1)NC(=O)[C@H](Cc1ccc(O)cc1)NC(=O)[C@@H](N)CCCCN)C(C)C)[C@@H](C)O)C(C)C)C(C)C)C(=O)N[C@@H](C)C(=O)N[C@@H](CC(N)=O)C(=O)N[C@@H](Cc1ccccc1)C(=O)NCC(=O)N[C@@H](Cc1c[nH]cn1)C(=O)NCC(=O)N[C@@H](CCCCN)C(=O)N[C@@H](CS)C(=O)O [PLN-S23E] (H-KYYGNGVTCGKHSCSVNWGQAFECSVSHLANFGHGKC-OH; N-terminus and C-terminus assumed),,13
CC(C)C[C@H](NC(=O)[C@H](Cc1c[nH]cn1)NC(=O)[C@H](CC(=O)O)NC(=O)[C@@H](NC(=O)[C@H](CO)NC(=O)[C@H](CS)NC(=O)[C@H](CO)NC(=O)[C@H](Cc1ccccc1)NC(=O)[C@H](C)NC(=O)[C@H](CCC(N)=O)NC(=O)CNC(=O)[C@H](Cc1c[nH]c2ccccc12)NC(=O)[C@H](CC(N)=O)NC(=O)[C@@H](NC(=O)[C@H](CO)NC(=O)[C@H](CS)NC(=O)[C@H](CO)NC(=O)[C@H](Cc1c[nH]cn1)NC(=O)[C@H](CCCCN)NC(=O)CNC(=O)[C@H](CS)NC(=O)[C@@H](NC(=O)[C@@H](NC(=O)CNC(=O)[C@H](CC(N)=O)NC(=O)CNC(=O)[C@H](Cc1ccc(O)cc1)NC(=O)[C@H](Cc1ccc(O)cc1)NC(=O)[C@@H](N)CCCCN)C(C)C)[C@@H](C)O)C(C)C)C(C)C)C(=O)N[C@@H](C)C(=O)N[C@@H](CC(N)=O)C(=O)N[C@@H](Cc1ccccc1)C(=O)NCC(=O)N[C@@H](Cc1c[nH]cn1)C(=O)NCC(=O)N[C@@H](CC(N)=O)C(=O)N[C@@H](CS)C(=O)O [PLN-S27D/K36N] (H-KYYGNGVTCGKHSCSVNWGQAFSCSVDHLANFGHGNC-OH; N-terminus and C-terminus assumed),2,
